The results in this text go back to ChEMBL document CHEMBL5131521, “The N,N,O-Trisubstituted Hydroxylamine Isostere and Its Influence on Lipophilicity and Related Parameters” (ACS Med Chem Lett, 2022).

SMILES strings stand for the structures. In brackets after ≈: the same amount, converted by molar mass. A value given as a limit tells only on which side of the number the result lay.

Data set [1] is described as follows: Lipophilicity, logP of the compound by LC/UV/MS analysis. Conditions: octanol/water. In kind it is physicochemical.
Data set [2] can be described thus: Lipophilicity, logD of compound at pH 7.4 by shake flask method. In kind it is physicochemical. Conditions: buffer.
A short description of data set [3]: Metabolic stability in human liver microsomes assessed as compound remaining at 1 uM measured upto 60 mins in presence of NADPH for 15 mins by LC-MS/MS analysis. In kind it is ADME, Microsome. Conditions: for Stability: microsomes, 1 h, 1 µM; for remaining at 1 h, 1 µM: liver microsomes, read-out: Stability.
Data set [4] is described as follows: Metabolic stability in mouse liver microsomes assessed as half life at 1 uM measured upto 60 mins by LC-MS/MS analysis. It is filed as ADME, Microsome. Conditions: for half-life at 1 µM: liver microsomes; for t1/2: microsomes, 1 h, 1 µM.
A short description of data set [5]: Metabolic stability in human liver microsomes assessed as half life at 1 uM measured upto 60 mins by LC-MS/MS analysis. In kind it is ADME, Microsome. The settings on record: for t1/2: microsomes, 1 h, 1 µM; for half-life at 1 µM: liver microsomes.
The nature of data set [6]: Aqueous solubility of compound in pH 7.4 phosphate buffer. In kind it is physicochemical.
The nature of data set [7]: Plasma protein binding in human assessed as free fraction at 1 mM by equilibrium dialysis assay. It is filed as ADME, cell-free.
Data set [8] can be described thus: Metabolic stability in mouse liver microsomes assessed as compound remaining at 1 uM measured upto 60 mins in presence of NADPH for 15 mins by LC-MS/MS analysis. In kind it is ADME, Microsome. Conditions: for remaining at 1 h, 1 µM: liver microsomes, read-out: Stability; for Stability: microsomes, 1 h, 1 µM.
The nature of data set [9]: Metabolic stability in human liver microsomes assessed as intrinsic clearance at 1 uM measured upto 60 mins by LC-MS/MS analysis. Conditions: 1 h. In kind it is ADME, Microsome.
Data set [10] in a line: Metabolic stability in mouse liver microsomes assessed as intrinsic clearance at 1 uM measured upto 60 mins by LC-MS/MS analysis. Conditions: 1 h. It is filed as ADME, Microsome.
A short description of data set [11]: Metabolic stability in mouse liver microsomes at 1 uM measured upto 60 mins by LC-MS/MS analysis. It is filed as ADME, Microsome. Conditions: 1 h.
In a further data set the test system is HepG2. Description: Cytotoxicity against human HepG2 cells assessed as inhibition of cell growth incubated for 3 days by trypan blue assay. It is filed as functional, cell-based. The settings on record: HepG2, 72 h.

As for `c1ccc(CCCN2CCCCC2)cc1`, in data set [1], the lipophilicity (logP) amounted to 5.1. The same compound showed a logD in data set [2] of 1.
For `c1ccc(COCCCON2CCCCC2)cc1`, in data set [1], the logP stood at 4.8. The logD in data set [2] came out at 3.
Taken in the same sequence, the figures for `c1ccc(CCON2CCCCC2)cc1` were 4.8 and 3.2.
The compound `c1ccc2c(c1)CCCN2OCCN1CCN(C2CCCCC2)CC1` gave a logP in data set [1] of 5. Moreover, the Stability in [3] is given as 48.07%. Also, in data set [4], the half-life at 1 µM turned out to be 3.19 min. Also, the logD in data set [2] came out at 2.4. In data set [5], the t1/2 came out at 13.74 min. Besides, the solubility in [6] is more than 300 µM. Moreover, the free fraction (fraction unbound) in [7] was found to be 0.341. In data set [8], the remaining at 1 h, 1 µM worked out at 4.32%.
For the compound `c1ccc(CCCC2CCCCC2)cc1`, the logP in data set [1] was 6.6.
In the case of `c1ccc2c(c1)CCCC2OCCN1CCN(C2CCCCC2)CC1` (stereo not given), the logP in data set [1] was 5. Also, in data set [3], the Stability was 17.01%. For the same compound, the half-life at 1 µM in [4] amounted to 3.12 min. Further, the log distribution coefficient (logD) in [2] amounted to 2.7. For the same compound, the t1/2 in [5] amounted to 5.67 min. For the same compound, in [6], the concentration in solution (solubility) came to 287 µM (≈ 98.3 µg/mL). Moreover, the unbound share (fraction unbound) in data set [7] turned out to be 0.322. Further, the remaining at 1 h, 1 µM in data set [8] was determined as 3.98%.
In turn, `c1ccc(CCOC2CCCCC2)cc1` displayed a logP in [1] of 6.2.
The same measure, in the same setting: in the case of `CCCCCOC1CCc2ccccc2C1` (stereo not given) it was 6.6; in that of `c1ccc(COCCCOC2CCCCC2)cc1`, 6.2.
In turn, `COc1ccccc1OCCCN1CCOCC1` showed a log partition coefficient (logP) in data set [1] of 2.3. Besides, the values for the CLint in data set [9] and in [10] were less than 5 µL/min/mg and 315 µL/min/mg, respectively. Moreover, the figures for the remaining at 1 h, 1 µM in data set [3] and in data set [8] were 91% and 10.2%, respectively. Besides, the half-life at 1 µM in data set [4] is 4.4 min; in data set [5] it was more than 300 min. The log distribution coefficient (logD) in [2] came out at 1.3. Besides, in data set [6], the solubility came to 273 µM (≈ 68.6 µg/mL). In addition, the fraction unbound in [7] turned out to be 0.573.
Take `c1ccc(COCCCCN2CCCCC2)cc1`: in [1], the logP was 5.8. In addition, the log distribution coefficient (logD) in [2] was found to be 0.9.
As for `COc1ccccc1OCCON1CCOCC1`, the lipophilicity (logP) in data set [1] worked out at 2.1. Also, the CLint was 14 µL/min/mg in data set [9] and 129 µL/min/mg in data set [10]. The Stability in data set [3] is 91.54%; in data set [8], 36.43%. The t1/2 in data set [4] came out at 10.75 min; in data set [5], 98.54 min. The same compound had a logD in [2] of 1.3. Moreover, the solubility in data set [6] came to 293 µM (≈ 74.2 µg/mL). In data set [7], the fraction unbound came to 0.625.
Turning to `c1ccc2c(c1)CCCN2CCCN1CCN(C2CCCCC2)CC1`, in data set [1], the lipophilicity (logP) came out at 5.3. In addition, the remaining at 1 h, 1 µM in data set [3] worked out at 13.7%; in data set [8], 8.5%. Also, the half-life at 1 µM in data set [4] worked out at 4.07 min; in data set [5], 5.06 min. The same compound yielded a logD in [2] of 1.8. Moreover, in [6], the solubility turned out to be 275 µM (≈ 93.9 µg/mL). Besides, in [7], the free fraction (fraction unbound) was determined as 0.153.
`c1ccc(COCCCCC2CCCCC2)cc1` returned a log partition coefficient (logP) in data set [1] of 6.6.
Regarding `CCCCCCN1CCc2ccccc2C1`, the logP in [1] came out at 5.3. Besides, in [2], the log distribution coefficient (logD) worked out at 3.3.
Consider `COc1ccccc1OCCCC1CCOCC1`, for which the logP in [1] is 3.4. In data set [9], the CLint was 77 µL/min/mg. Also, the Stability is 50.46% in data set [3], “Unstable” in [11] and “Bld” in [8] (BLD = below limit of detection). For the same compound, the t1/2 in data set [5] is 18.07 min. Besides, the solubility in data set [6] came out at 244 µM (≈ 61.1 µg/mL). Also, in data set [7], the fraction unbound turned out to be 0.106.
The compound `CCCCCON1CCc2ccccc2C1` yielded a logP in data set [1] of 5.9. In [2], this compound gave a logD of 4.7.
For `COc1ccccc1OCCOC1CCOCC1`, the log partition coefficient (logP) in data set [1] was 2.1. The CLint in [9] was 17 µL/min/mg; in data set [10] it was 196 µL/min/mg. Further, the figures for the Stability in [3] and in [8] were 82.92% and 24.08%, respectively. Moreover, the t1/2 came to 7.06 min in [4] and 83.41 min in [5]. The compound also showed a solubility in data set [6] of 275 µM (≈ 69.4 µg/mL). Besides, the fraction unbound in data set [7] turned out to be 0.544.
In data set [1], `CCCCCCC1CCc2ccccc2C1` (stereo not given) registered a logP of 7.9.
Consider `c1ccc2c(c1)CCCC2CCCN1CCN(C2CCCCC2)CC1` (stereo not given), for which the log partition coefficient (logP) in data set [1] was 6.2. Besides, the CLint in data set [9] worked out at 275 µL/min/mg; in [10], 455 µL/min/mg. For the same compound, the remaining at 1 h, 1 µM in [3] is 13.6%; in [8], 3.7%. Moreover, the half-life at 1 µM amounted to 3.05 min in [4] and 5.04 min in data set [5]. In [2], the log distribution coefficient (logD) was 3.9. The solubility in data set [6] was found to be 288 µM (≈ 98.1 µg/mL). Also, the fraction unbound in data set [7] is 0.0519.
On to `O=C(CCCCCCC(=O)Nc1ccccc1)NO` [VORINOSTAT], for which the IC50 in the data set with HepG2 is 3.2 ng/mL (≈ 0.0121 µM).
